Measured values from US8802597B2, “Herbicidal pyrimidines” (E I du Pont de Nemours and Company, priority 2003, dated 2014).
Like-named read-outs stand apart in the source and are kept apart here.

Key:
Type in all cases: in vivo
[1] = system: chickweed (Stellaria media); assay: Test C postemergence; conditions: for pest or weed control at 31 g/ha: 31 g ai/ha; for Plant response rating, Chickweed: scale 0 to 100
Outline: (§1)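 Applications: preemergence onto seeded soil and postemergence onto 1- to 4-leaf seedlings, compound carried in non-phytotoxic solvent plus surfactant. Kept in greenhouse 12 to 14 days. Scored visually relative to untreated controls, 0 (no effect) to 100 (complete control).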

[2] = system: morningglory (Ipomoea coccinea); assay: Test C pre/postemergence; conditions: for pest or weed control at 16 g/ha / pest or weed control at 31 g/ha / pest or weed control at 62 g/ha / pest or weed control at 125 g/ha / pest or weed control at 250 g/ha: Ipomoea; for pest or weed control at 16 g/ha: 16 g ai/ha; for pest or weed control at 31 g/ha: 31 g ai/ha
Outline: as §1

[3] = system: woolly cupgrass (Eriochloa villosa); assay: Test C pre/postemergence; conditions: for pest or weed control at 16 g/ha / pest or weed control at 31 g/ha / pest or weed control at 62 g/ha / pest or weed control at 125 g/ha / pest or weed control at 250 g/ha: Eriochloa villosa; for pest or weed control at 16 g/ha: 16 g ai/ha; for pest or weed control at 31 g/ha: 31 g ai/ha
Outline: as §1

[4] = system: eastern black nightshade (Solanum ptycanthum); assay: Test C pre/postemergence; conditions: Preemergence; for pest or weed control at 31 g/ha: 31 g ai/ha
Outline: as §1

[5] = system: smallflower umbrella sedge (Cyperus difformis); assay: Test E flooded paddy water application; conditions: Flood, 21 days, scale 0 to 100 (0 no effect, 100 complete control)
Outline: (§2)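 Greenhouse pots of Tama silt loam with weeds and rice at 2.0–2.5-leaf stage, flooded to 3 cm; compounds applied directly into paddy water, depth maintained. Visual rating versus untreated controls after 21 days, 0 (no effect) to 100 (complete control); 29.5/26.7 °C, 16-h photoperiod.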

[6] = system: purple redstem (Ammannia coccinea); assay: Test E flooded paddy water application; conditions: Flood, 21 days, scale 0 to 100 (0 no effect, 100 complete control)
Outline: as §2

[7] = system: junglerice (Echinochloa colona); assay: Test E flooded paddy water application; conditions: Flood, 21 days, scale 0 to 100 (0 no effect, 100 complete control)
Outline: as §2

[8] = system: transplanted rice seedlings (Oryza sativa cv. ‘Japonica-M202’); assay: Test E flooded paddy water application; conditions: Flood, 21 days, scale 0 to 100 (0 no effect, 100 complete control)
Outline: as §2

[9] = system: bearded (brdd.) sprangletop (Leptochloa fusca ssp. fascicularis); assay: Test E flooded paddy water application; conditions: Flood, 21 days, scale 0 to 100 (0 no effect, 100 complete control)
Outline: as §2

[10] = system: ducksalad (Heteranthera limosa); assay: Test E flooded paddy water application; conditions: Flood, 21 days, scale 0 to 100 (0 no effect, 100 complete control)
Outline: as §2

[11] = system: early watergrass (Echinochloa oryzoides); assay: Test E flooded paddy water application; conditions: Flood, 21 days, scale 0 to 100 (0 no effect, 100 complete control)
Outline: as §2

[12] = Stellaria media, post-emergence, read-out: Plant response rating (scale of 0 to 100), Chickweed
[13] = post-emergence, Postemergence, read-out: Plant response rating (scale of 0 to 100), Morningglory
[14] = post-emergence, Postemergence, 125 g ai/ha, scale 0 to 100 (0 no effect, 100 complete control), read-out: Morningglory plant response rating
[15] = pre-emergence, Preemergence, scale 0 to 100, 0 no effect, 100 complete control, read-out: Plant response rating, Morningglory
[16] = pre-emergence, Preemergence, 62 g ai/ha, scale 0 to 100, 0 no effect, 100 complete control, read-out: Plant response rating, Morningglory
[17] = pre-emergence, Preemergence, 125 g ai/ha, scale 0 to 100, read-out: Plant response rating, Morningglory
[18] = post-emergence, Postemergence, read-out: Plant response rating (scale of 0 to 100), Cupgrass, Woolly
[19] = post-emergence, Postemergence, 125 g ai/ha, scale 0 to 100 (0 no effect, 100 complete control), read-out: Cupgrass, Woolly plant response rating
[20] = pre-emergence, Preemergence, scale 0 to 100, 0 no effect, 100 complete control, read-out: Plant response rating, Cupgrass, Woolly
[21] = pre-emergence, Preemergence, 62 g ai/ha, scale 0 to 100, 0 no effect, 100 complete control, read-out: Plant response rating, Cupgrass, Woolly
[22] = pre-emergence, Preemergence, 125 g ai/ha, scale 0 to 100, read-out: Plant response rating, Cupgrass, Woolly
[23] = Solanum, pre-emergence, scale 0 to 100, 0 no effect, 100 complete control, read-out: Plant response rating, Nightshade
[24] = Postemergence, 62 g ai/ha, scale 0 to 100 (0 no effect, 100 complete control)
[25] = Postemergence, 125 g ai/ha, scale 0 to 100 (0 no effect, 100 complete control)
[26] = Postemergence, 250 g ai/ha, scale 0 to 100
[27] = Postemergence, 500 g ai/ha, scale 0 to 100
[28] = Preemergence, 62 g ai/ha, scale 0 to 100, 0 no effect, 100 complete control
[29] = Preemergence, 125 g ai/ha, scale 0 to 100
[30] = Preemergence, 250 g ai/ha, scale 0 to 100
[31] = Preemergence, 500 g ai/ha, scale 0 to 100

Nc1nc(-c2ccc(Cl)cc2)nc(C(=O)O)c1Cl [Compound 65, 6-amino-5-chloro-2-(4-chlorophenyl)-4-pyrimidinecarboxylic acid]
pest or weed control at 16 g/ha ([1]; Stellaria media, post-emergence, 16 g ai/ha, read-out: Plant response rating (scale of 0 to 100), Chickweed): 60%
pest or weed control at 31 g/ha [1, 12]: 60%
pest or weed control at 62 g/ha ([1]; Stellaria media, post-emergence, 62 g ai/ha, read-out: Plant response rating (scale of 0 to 100), Chickweed): 60%
pest or weed control at 125 g/ha ([1]; Stellaria media, post-emergence, 125 g ai/ha, scale 0 to 100 (0 no effect, 100 complete control), read-out: Chickweed plant response rating): 70%
pest or weed control at 16 g/ha [2, 13]: 90%
pest or weed control at 31 g/ha [2, 13]: 90%
pest or weed control at 62 g/ha ([2]; post-emergence, Postemergence, 62 g ai/ha, read-out: Plant response rating (scale of 0 to 100), Morningglory): 90%
pest or weed control at 125 g/ha [2, 14]: 95%
pest or weed control at 16 g/ha [2, 15]: 0%
pest or weed control at 31 g/ha [2, 15]: 0%
pest or weed control at 62 g/ha [2, 16]: 20%
pest or weed control at 125 g/ha [2, 17]: 100%
pest or weed control at 16 g/ha [3, 18]: 60%
pest or weed control at 31 g/ha [3, 18]: 80%
pest or weed control at 62 g/ha ([3]; post-emergence, Postemergence, 62 g ai/ha, read-out: Plant response rating (scale of 0 to 100), Cupgrass, Woolly): 85%
pest or weed control at 125 g/ha [3, 19]: 85%
pest or weed control at 16 g/ha [3, 20]: 0%
pest or weed control at 31 g/ha [3, 20]: 0%
pest or weed control at 62 g/ha [3, 21]: 5%
pest or weed control at 125 g/ha [3, 22]: 70%
pest or weed control at 16 g/ha ([4]; Solanum, pre-emergence, 16 g ai/ha, scale 0 to 100, 0 no effect, 100 complete control, read-out: Plant response rating, Nightshade): 0%
pest or weed control at 31 g/ha [4, 23]: 0%
Sedge, Umbrella plant response rating ([5]; 32 g ai/ha): 80
Sedge, Umbrella plant response rating ([5]; 64 g ai/ha): 85
Sedge, Umbrella plant response rating ([5]; 125 g ai/ha): 100
Sedge, Umbrella plant response rating ([5]; 250 g ai/ha): 100
Plant response rating, Sedge, Umbrella ([5]; 16 g ai/ha): 20
Redstem plant response rating ([6]; 32 g ai/ha): 30
Redstem plant response rating ([6]; 64 g ai/ha): 30
Redstem plant response rating ([6]; 125 g ai/ha): 50
Redstem plant response rating ([6]; 250 g ai/ha): 60
Plant response rating, Redstem ([6]; 16 g ai/ha): 0
Junglerice plant response rating ([7]; 32 g ai/ha): 0
Junglerice plant response rating ([7]; 64 g ai/ha): 0
Junglerice plant response rating ([7]; 125 g ai/ha): 40
Junglerice plant response rating ([7]; 250 g ai/ha): 40
Plant response rating, Junglerice ([7]; 16 g ai/ha): 0
Rice, Transplanted plant response rating ([8]; 32 g ai/ha): 0
Rice, Transplanted plant response rating ([8]; 64 g ai/ha): 0
Rice, Transplanted plant response rating ([8]; 125 g ai/ha): 0
Rice, Transplanted plant response rating ([8]; 250 g ai/ha): 0
Plant response rating, Rice, Transplanted ([8]; 16 g ai/ha): 0
Sprangletop, Brdd. plant response rating ([9]; 32 g ai/ha): 0
Sprangletop, Brdd. plant response rating ([9]; 64 g ai/ha): 0
Sprangletop, Brdd. plant response rating ([9]; 125 g ai/ha): 40
Sprangletop, Brdd. plant response rating ([9]; 250 g ai/ha): 40
Plant response rating, Sprangletop, Brdd. ([9]; 16 g ai/ha): 0
Ducksalad plant response rating ([10]; 32 g ai/ha): 100
Ducksalad plant response rating ([10]; 64 g ai/ha): 100
Ducksalad plant response rating ([10]; 125 g ai/ha): 100
Ducksalad plant response rating ([10]; 250 g ai/ha): 100
Plant response rating, Ducksalad ([10]; 16 g ai/ha): 100
Watergrass, Early plant response rating ([11]; 32 g ai/ha): 0
Watergrass, Early plant response rating ([11]; 64 g ai/ha): 0
Watergrass, Early plant response rating ([11]; 125 g ai/ha): 0
Watergrass, Early plant response rating ([11]; 250 g ai/ha): 10
Plant response rating, Watergrass, Early ([11]; 16 g ai/ha): 0

CCCOC(=O)c1nc(C2CC2)nc(N)c1Br [Compound 15]
Chickweed plant response rating ([1]; 62 g ai/ha, scale 0 to 100 (0 no effect, 100 complete control)): 20
Plant response rating, Chickweed ([1]; 125 g ai/ha): 50
Plant response rating, Chickweed ([1]; 250 g ai/ha): 65
Plant response rating, Chickweed ([1]; 500 g ai/ha): 85
Morningglory plant response rating [2, 24]: 90
Morningglory plant response rating [2, 25]: 95
Plant response rating, Morningglory [2, 26]: 100
Plant response rating, Morningglory [2, 27]: 100
Plant response rating, Morningglory [2, 28]: 95
Plant response rating, Morningglory [2, 29]: 100
Plant response rating, Morningglory [2, 30]: 100
Plant response rating, Morningglory [2, 31]: 100
Cupgrass, Woolly plant response rating [3, 24]: 0
Cupgrass, Woolly plant response rating [3, 25]: 50
Plant response rating, Cupgrass, Woolly [3, 26]: 65
Plant response rating, Cupgrass, Woolly [3, 27]: 75
Plant response rating, Cupgrass, Woolly [3, 28]: 0
Plant response rating, Cupgrass, Woolly [3, 29]: 20
Plant response rating, Cupgrass, Woolly [3, 30]: 85
Plant response rating, Cupgrass, Woolly [3, 31]: 95
Plant response rating, Nightshade ([4]; 62 g ai/ha, scale 0 to 100, 0 no effect, 100 complete control): 95
Plant response rating, Nightshade ([4]; 125 g ai/ha, scale 0 to 100): 100
Plant response rating, Nightshade ([4]; 250 g ai/ha, scale 0 to 100): 100
Plant response rating, Nightshade ([4]; 500 g ai/ha, scale 0 to 100): 100

COC(=O)c1nc(C2CC2)nc(N)c1Br [Compound 2, methyl 6-amino-5-bromo-2-cyclopropyl-4-pyrimidinecarboxylate]
pest or weed control at 31 g/ha [1, 12]: 60%
pest or weed control at 62 g/ha ([1]; Stellaria media, post-emergence, 62 g ai/ha, scale 0 to 100 (0 no effect, 100 complete control), read-out: Chickweed plant response rating): 65%
pest or weed control at 125 g/ha ([1]; Stellaria media, post-emergence, 125 g ai/ha, scale 0 to 100, read-out: Plant response rating, Chickweed): 75%
pest or weed control at 250 g/ha ([1]; Stellaria media, post-emergence, 250 g ai/ha, scale 0 to 100, read-out: Plant response rating, Chickweed): 95%
pest or weed control at 31 g/ha [2, 13]: 70%
pest or weed control at 62 g/ha ([2]; post-emergence, Postemergence, 62 g ai/ha, scale 0 to 100 (0 no effect, 100 complete control), read-out: Morningglory plant response rating): 75%
pest or weed control at 125 g/ha [2, 14]: 100%
pest or weed control at 250 g/ha ([2]; post-emergence, Postemergence, 250 g ai/ha, scale 0 to 100, read-out: Plant response rating, Morningglory): 100%
pest or weed control at 31 g/ha [2, 15]: 100%
pest or weed control at 62 g/ha [2, 16]: 100%
pest or weed control at 125 g/ha [2, 17]: 100%
pest or weed control at 250 g/ha ([2]; pre-emergence, Preemergence, 250 g ai/ha, scale 0 to 100, read-out: Plant response rating, Morningglory): 100%
pest or weed control at 31 g/ha [3, 18]: 40%
pest or weed control at 62 g/ha ([3]; post-emergence, Postemergence, 62 g ai/ha, scale 0 to 100 (0 no effect, 100 complete control), read-out: Cupgrass, Woolly plant response rating): 60%
pest or weed control at 125 g/ha [3, 19]: 70%
pest or weed control at 250 g/ha ([3]; post-emergence, Postemergence, 250 g ai/ha, scale 0 to 100, read-out: Plant response rating, Cupgrass, Woolly): 75%
pest or weed control at 31 g/ha [3, 20]: 0%
pest or weed control at 62 g/ha [3, 21]: 0%
pest or weed control at 125 g/ha [3, 22]: 0%
pest or weed control at 250 g/ha ([3]; pre-emergence, Preemergence, 250 g ai/ha, scale 0 to 100, read-out: Plant response rating, Cupgrass, Woolly): 45%
pest or weed control at 31 g/ha [4, 23]: 0%
pest or weed control at 62 g/ha ([4]; Solanum, pre-emergence, 62 g ai/ha, scale 0 to 100, 0 no effect, 100 complete control, read-out: Plant response rating, Nightshade): 20%
pest or weed control at 125 g/ha ([4]; Solanum, pre-emergence, 125 g ai/ha, scale 0 to 100, read-out: Plant response rating, Nightshade): 100%
pest or weed control at 250 g/ha ([4]; Solanum, pre-emergence, 250 g ai/ha, scale 0 to 100, read-out: Plant response rating, Nightshade): 100%
